Results reported in publication PMC8348110, “A Novel Peptide Derived from the Transmembrane Domain of Romo1 Is a Promising Candidate for Sepsis Treatment and Multidrug-Resistant Bacteria” (International Journal of Molecular Sciences, 2021).
Residues, ends and D or L forms follow the SMILES beside them.

Columns and labels:
human erythrocytes = assay: Hemolysis assay; format: cell-based; conditions: 2% erythrocytes in PBS, 1 h 37 °C, absorbance 550 nm; up to / at 256 µg/mL
Protocol: (§1) For the hemolytic assay, mouse and human whole blood was diluted with PBS (pH 7.4) and centrifuged for 10 min at 500× g. After removing the supernatant and rinsing the pellet three times with PBS, we resuspended the erythrocytes in PBS at 2% volume. The blood solution was added to the solution of peptides with two-fold serial dilution on a 96-well plate. After incubation for an hour at 37 °C, the plate was centrifuged at 2500× g for 10 min, and the absorbance of the supernatant was measured at 550 nm. The PBS-treated sample was the negative control, and the 0.1% Triton X-100–treated sample was the positive control. To measure white blood cell toxicity, mouse and human PBMCs were freshly isolated as previously described, and 70% ethanol (positive control) or AMPR-22 was administered using two-fold diluted concentrations (0 to 256 μg/mL) for 30 min. To measure cell death, a LIVE/DEAD® fixable green dead cell stain kit (Thermo Fisher Scientific, Waltham, MS, USA) was used following the manufacturer′s instructions, and flow cytometry was performed using a FACS Canto II (BD Biosciences, CA, USA). The toxicity of AMPR-22 was compared with negative (PBS-treated) and positive controls, and the data were analyzed using FlowJo software (Tree Star, OR, USA).

mouse erythrocytes = assay: Hemolysis assay; format: cell-based; conditions: 2% erythrocytes in PBS, 1 h 37 °C, absorbance 550 nm; concentrations up to 256 µg/mL
Protocol: as §1

[1] = test system: P. aeruginosa or S. aureus; format: in vitro ADME
Protocol: Figure 4 The antibacterial activity of AMPR-22 in various physiological conditions. (A,B) Effects of AMPR-22 activity in mouse plasma and human serum. AMPR-22 was incubated with blood components for the indicated times (0, 15, 30, 60, 90, 120, 150, and 180 min) and then with P. aeruginosa or S. aureus for an hour. (C,D) Effects of AMPR-22 activity in low-density lipoprotein (LDL), high-density lipoprotein (HDL), and bovine serum albumin. AMPR-22 was incubated with blood components for the indicated times (0, 30, 60, 120, and 180 min) and then with P. aeruginosa or S. aureus for an hour. (E) Effects of AMPR-22 activity in whole blood. AMPR-22 was incubated with mouse and human whole blood for the indicated times (0, 30, 60, 90, 120, and 180 min) and then with P. aeruginosa for an hour. (F,G) The antibacterial activity of AMPR-22 in vivo. AMPR-22 was intravenously administered into P. aeruginosa-infected mice, and blood was collected from the tail veins of the mice at the indicated times (0, 15, 30, 60, and 90 min). (F) The relative CFU in blood samples was calculated using the following formula: CFU at indicated time ÷ CFU at 0 min × 100 (%). (G) The relative CFU of blood samples obtained from F was re-graphed using the following formula: CFU of AMPR-22-treated mouse group ÷ CFU of control (PBS) group × 100 (%). (H) The functional half-life measurement of AMPR-22. AMPR-22 was intravenously administered into mice, and blood was collected at the indicated times (0, 5, 30, 60, 90, 120, 150, and 180 min). The blood was collected by cardiac puncture, and the plasma was isolated by centrifugation. Then, the plasma was incubated with P. aeruginosa for an hour. The antibacterial activity was measured using a colony-forming unit assay. […]
(§2) We used the CFU counting method to measure antibacterial activity, with all bacteria cultured to the mid-log phase in an appropriate broth medium. Bacterial CFUs were counted after overnight culture at 37 °C on TS or LB agar plates. The MBC value and antibacterial activity in blood components were determined as previously described. […]

P. aeruginosa = conditions: mouse, iv, 40 mg/kg
Protocol: Figure 4 The antibacterial activity of AMPR-22 in various physiological conditions. (A,B) Effects of AMPR-22 activity in mouse plasma and human serum. AMPR-22 was incubated with blood components for the indicated times (0, 15, 30, 60, 90, 120, 150, and 180 min) and then with P. aeruginosa or S. aureus for an hour. (C,D) Effects of AMPR-22 activity in low-density lipoprotein (LDL), high-density lipoprotein (HDL), and bovine serum albumin. AMPR-22 was incubated with blood components for the indicated times (0, 30, 60, 120, and 180 min) and then with P. aeruginosa or S. aureus for an hour. (E) Effects of AMPR-22 activity in whole blood. AMPR-22 was incubated with mouse and human whole blood for the indicated times (0, 30, 60, 90, 120, and 180 min) and then with P. aeruginosa for an hour. (F,G) The antibacterial activity of AMPR-22 in vivo. […] (F) The relative CFU in blood samples was calculated using the following formula: CFU at indicated time ÷ CFU at 0 min × 100 (%). […] The antibacterial activity was measured using a colony-forming unit assay. […]
as §2

CC[C@H](C)[C@H](NC(=O)CNC(=O)CNC(=O)[C@@H](NC(=O)[C@H](C)NC(=O)[C@H](CCSC)NC(=O)[C@H](Cc1ccccc1)NC(=O)[C@@H](NC(=O)CNC(=O)[C@H](Cc1ccccc1)NC(=O)[C@H](CCCCN)NC(=O)CNC(=O)CNC(=O)[C@H](CCCCN)NC(=O)[C@H](CCCCN)NC(=O)[C@H](CCSC)NC(=O)[C@H](CCSC)NC(=O)[C@H](CCCCN)NC(=O)[C@@H](N)CCCCN)[C@@H](C)O)[C@@H](C)CC)C(=O)N[C@@H](CCCNC(=N)N)C(=O)O [AMPR-22] (H-KKMMKKGGKFGTFMAIGGIR-OH)
Hemolytic activity against human erythrocytes (human erythrocytes): negligible hemolytic activity | Hemolytic activity against mouse erythrocytes (mouse erythrocytes): relatively endurable hemolysis properties | Antibacterial activity in presence of human LDL, HDL or bovine serum albumin [1]: not affected | Functional half-life in vitro [1]: around 90 min | Half-life of antibacterial activity in mouse plasma and human serum [1]: longer than that of AMPR-11 | Antibacterial activity maintained 37 min after peptide injection (P. aeruginosa; in vivo): more than 50% | Functional half-life in vivo (P. aeruginosa): around 37 min
